Data set [1] addresses T1, Glucagon-like peptide 1 receptor (Homo sapiens, UniProt P43220). The data set can be described thus: Agonist activity at human GLP1R expressed in HEK293 cells at 30 nM after 5 hrs by luciferase reporter gene assay. It counts as cell-based. Background: Reporter assays use an easily measured gene product as a stand-in for the process of interest.
Another data set has as its system HEK293. The data set can be described thus: Selectivity ratio of EC50 for human GLP1R expressed in HEK293 cells to EC50 for human GLP2R expressed in HEK293. The data set is classed as cell-based.
Data set [2] concerns the target Glucagon receptor (Homo sapiens) (UniProt P47871). The data set can be described thus: Agonist activity at human GCGR expressed in HEK293 cells after 5 hrs by luciferase reporter gene assay. It counts as cell-based.
The target of data set [3] is T1, Glucagon-like peptide 1 receptor. The data set can be described thus: Agonist activity at human GLP1R expressed in HEK293 cells after 5 hrs by luciferase reporter gene assay. The data set is classed as cell-based.
Data set [4] is described as follows: Systemic clearance in Sprague-Dawley rat at 0.2 mg/kg, iv through cassette dosing measured up to 300 mins by LC/MS/MS analysis. It counts as ADME, organism-based. The note with it: in vivo.
For data set [5], the target named is T2, Glucagon-like peptide 2 receptor (Homo sapiens, UniProt O95838).
T2 sequence (O95838 whole entry): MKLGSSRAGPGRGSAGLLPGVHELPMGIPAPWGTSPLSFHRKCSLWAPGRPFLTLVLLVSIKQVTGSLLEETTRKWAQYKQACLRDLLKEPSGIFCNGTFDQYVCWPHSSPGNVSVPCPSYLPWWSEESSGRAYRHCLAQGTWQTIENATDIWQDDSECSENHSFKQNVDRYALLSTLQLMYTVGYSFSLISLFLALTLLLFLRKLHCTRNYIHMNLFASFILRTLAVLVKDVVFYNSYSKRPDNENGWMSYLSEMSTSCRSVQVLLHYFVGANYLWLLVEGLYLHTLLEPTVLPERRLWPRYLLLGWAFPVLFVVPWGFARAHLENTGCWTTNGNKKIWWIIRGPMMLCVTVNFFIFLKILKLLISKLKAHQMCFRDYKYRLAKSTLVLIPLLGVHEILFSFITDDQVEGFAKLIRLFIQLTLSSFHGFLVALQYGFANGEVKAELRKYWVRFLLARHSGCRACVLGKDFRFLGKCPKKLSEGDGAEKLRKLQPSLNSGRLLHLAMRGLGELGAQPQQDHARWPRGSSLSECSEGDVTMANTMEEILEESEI
As to the kind of experiment: Agonist activity at human GLP2R expressed in HEK293 cells after 5 hrs by luciferase reporter gene assay. It counts as cell-based.

pEC50: −log10 of the molar value. Calls of active or inactive are those of the source. The rule behind the calls is not given here. Non-standard residues stand in square brackets, D forms with d. Residues, ends and D or L forms follow the SMILES beside them. ξ: configuration not given here. Cha = N[C@@H](CC1CCCCC1)C(=O)O; ξNle = CCCCC(N)C(=O)O

Glucagon receptor (Homo sapiens), sequence (P47871 whole entry): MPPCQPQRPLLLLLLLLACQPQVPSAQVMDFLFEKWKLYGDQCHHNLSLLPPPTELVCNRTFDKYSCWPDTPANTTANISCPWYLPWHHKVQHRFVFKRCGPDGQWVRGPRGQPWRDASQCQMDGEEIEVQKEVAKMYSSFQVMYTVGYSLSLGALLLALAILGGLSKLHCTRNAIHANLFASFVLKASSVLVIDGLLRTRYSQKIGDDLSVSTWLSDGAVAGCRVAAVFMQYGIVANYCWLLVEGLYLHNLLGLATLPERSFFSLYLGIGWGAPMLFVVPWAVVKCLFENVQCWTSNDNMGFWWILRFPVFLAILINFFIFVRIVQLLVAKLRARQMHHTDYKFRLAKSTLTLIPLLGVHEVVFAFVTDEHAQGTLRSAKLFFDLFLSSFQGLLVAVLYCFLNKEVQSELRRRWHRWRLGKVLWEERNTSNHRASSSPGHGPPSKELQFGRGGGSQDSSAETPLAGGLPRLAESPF
T1 sequence (P43220 whole entry): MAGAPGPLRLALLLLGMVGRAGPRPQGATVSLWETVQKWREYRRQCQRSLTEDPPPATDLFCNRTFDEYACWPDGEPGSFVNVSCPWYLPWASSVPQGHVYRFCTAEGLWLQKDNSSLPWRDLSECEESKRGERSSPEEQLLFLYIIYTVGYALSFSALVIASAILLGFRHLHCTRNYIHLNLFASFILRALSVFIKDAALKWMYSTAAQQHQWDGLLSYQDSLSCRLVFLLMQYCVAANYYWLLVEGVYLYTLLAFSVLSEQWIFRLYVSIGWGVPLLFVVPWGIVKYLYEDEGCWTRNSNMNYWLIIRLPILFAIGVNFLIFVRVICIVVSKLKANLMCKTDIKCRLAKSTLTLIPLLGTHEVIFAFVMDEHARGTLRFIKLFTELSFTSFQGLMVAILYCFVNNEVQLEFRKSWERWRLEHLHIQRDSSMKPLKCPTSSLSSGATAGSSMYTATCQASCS

By pEC50 is commonly meant the EC50 on a negative log10 scale, so that one unit is a factor of ten. One may read the clearance as a measure of how efficiently the substance is removed, as volume per time. A low value points to inefficient removal. `CCCCC(NC(=O)[C@H](CCC(=O)O)NC(=O)[C@H](CC(=O)O)NC(=O)[C@H](CO)NC(=O)[C@H](Cc1ccccc1)NC(=O)[C@H](CO)NC(=O)CNC(=O)[C@H](CC(=O)O)NC(=O)CNC(=O)[C@@H](N)Cc1cnc[nH]1)C(=O)N[C@@H](Cc1c[nH]c2ccccc12)C(=O)N[C@H](C(=O)N[C@H](C(=O)N[C@@H](CC(C)C)C(=O)N[C@@H](CC(=O)O)C(=O)N[C@@H](CC(N)=O)C(=O)N[C@@H](CC(C)C)C(=O)N[C@@H](C)C(=O)N[C@@H](C)C(=O)N[C@@H](CCCNC(=N)N)C(=O)N[C@@H](CC(=O)O)C(=O)N[C@@H](Cc1ccccc1)C(=O)N[C@H](C(=O)N[C@@H](CC(N)=O)C(=O)N[C@@H](Cc1c[nH]c2ccccc12)C(=O)N[C@@H](CC(C)C)C(=O)N[C@H](C(=O)N[C@@H](CCC(N)=O)C(=O)N[C@H](C(=O)N[C@@H](CCCCN)C(N)=O)[C@@H](C)O)[C@@H](C)CC)[C@@H](C)CC)[C@@H](C)CC)[C@@H](C)O` (some centres not stated): the Efficacy in data set [1] amounted to 35%. The Ratio EC50 with HEK293 was 260. Besides, in data set [2], the outcome was inactive. For the same molecule, the pEC50 is 7.25 in data set [3] and 9.68 in data set [5]. Further, the clearance in data set [4] turned out to be 0.71 mL/min/kg.

Turning to `CCCCC(NC(=O)[C@H](CCC(=O)O)NC(=O)[C@H](CC(=O)O)NC(=O)[C@H](CO)NC(=O)[C@H](Cc1ccccc1)NC(=O)[C@H](CO)NC(=O)CNC(=O)[C@H](CC(=O)O)NC(=O)CNC(=O)[C@@H](N)Cc1cnc[nH]1)C(=O)N[C@H](Cc1ccsc1)C(=O)N[C@H](C(=O)N[C@H](C(=O)N[C@@H](CC(C)C)C(=O)N[C@@H](CC(=O)O)C(=O)N[C@@H](CC(N)=O)C(=O)N[C@@H](CC(C)C)C(=O)N[C@@H](C)C(=O)N[C@@H](C)C(=O)N[C@@H](CCCNC(=N)N)C(=O)N[C@@H](CC(=O)O)C(=O)N[C@@H](Cc1ccccc1)C(=O)N[C@H](C(=O)N[C@@H](CC(N)=O)C(=O)N[C@@H](Cc1c[nH]c2ccccc12)C(=O)N[C@@H](CC(C)C)C(=O)N[C@H](C(=O)N[C@@H](CCC(N)=O)C(=O)N[C@H](C(=O)N[C@@H](CCCCN)C(N)=O)[C@@H](C)O)[C@@H](C)CC)[C@@H](C)CC)[C@@H](C)CC)[C@@H](C)O` (some centres not stated), the Efficacy in data set [1] was determined as 39%. The Ratio EC50 in the data set with HEK293 amounted to 920. Also, the outcome in data set [2] was inactive. The pEC50 in data set [3] is 7.08; in data set [5], 10.05. The clearance in data set [4] was found to be 1.3 mL/min/kg.

The molecule `CCCCC(NC(=O)[C@H](CCC(=O)O)NC(=O)[C@H](CC(=O)O)NC(=O)[C@H](CO)NC(=O)[C@H](Cc1ccccc1)NC(=O)[C@H](CO)NC(=O)CNC(=O)[C@H](CC(=O)O)NC(=O)CNC(=O)[C@@H](N)Cc1cnc[nH]1)C(=O)N[C@H](Cc1ccc(O)cc1)C(=O)N[C@H](C(=O)N[C@H](C(=O)N[C@@H](CC(C)C)C(=O)N[C@@H](CC(=O)O)C(=O)N[C@@H](CC(N)=O)C(=O)N[C@@H](CC(C)C)C(=O)N[C@@H](C)C(=O)N[C@@H](C)C(=O)N[C@@H](CCCNC(=N)N)C(=O)N[C@@H](CC(=O)O)C(=O)N[C@@H](Cc1ccccc1)C(=O)N[C@H](C(=O)N[C@@H](CC(N)=O)C(=O)N[C@@H](Cc1c[nH]c2ccccc12)C(=O)N[C@@H](CC(C)C)C(=O)N[C@H](C(=O)N[C@@H](CCC(N)=O)C(=O)N[C@H](C(=O)N[C@@H](CCCCN)C(N)=O)[C@@H](C)O)[C@@H](C)CC)[C@@H](C)CC)[C@@H](C)CC)[C@@H](C)O` (some centres not stated) gave an Efficacy in data set [1] of 68%. In addition, the Ratio EC50 with HEK293 is 170. Moreover, the outcome in data set [2] was inactive. Besides, the figures for the pEC50 in data set [3] and in data set [5] were 7.49 and 9.74, respectively. The molecule further gave a clearance in data set [4] of 4.9 mL/min/kg.

The molecule `CCCCC(NC(=O)[C@H](CCC(=O)O)NC(=O)[C@H](CC(=O)O)NC(=O)[C@H](CO)NC(=O)[C@H](Cc1ccccc1)NC(=O)[C@H](CO)NC(=O)CNC(=O)[C@H](CC(=O)O)NC(=O)CNC(=O)[C@@H](N)Cc1cnc[nH]1)C(=O)N[C@H](C(=O)N[C@H](C(=O)N[C@H](C(=O)N[C@@H](CC(C)C)C(=O)N[C@@H](CC(=O)O)C(=O)N[C@@H](CC(N)=O)C(=O)N[C@@H](CC(C)C)C(=O)N[C@@H](C)C(=O)N[C@@H](C)C(=O)N[C@@H](CCCNC(=N)N)C(=O)N[C@@H](CC(=O)O)C(=O)N[C@@H](Cc1ccccc1)C(=O)N[C@H](C(=O)N[C@@H](CC(N)=O)C(=O)N[C@@H](Cc1c[nH]c2ccccc12)C(=O)N[C@@H](CC(C)C)C(=O)N[C@H](C(=O)N[C@@H](CCC(N)=O)C(=O)N[C@H](C(=O)N[C@@H](CCCCN)C(N)=O)[C@@H](C)O)[C@@H](C)CC)[C@@H](C)CC)[C@@H](C)CC)[C@@H](C)O)[C@@H](C)CC` (some centres not stated) (H-HGDGSFSDE[ξNle]ITILDNLAARDFINWLIQTK-NH2) registered an Efficacy in data set [1] of 92%. The Ratio EC50 in the data set on HEK293 is 840. For the same molecule, in data set [2], the result was inactive. In addition, the results for the pEC50 in data set [3] and in data set [5] were 6.96 and 9.89, respectively. Moreover, the clearance in data set [4] was 5.6 mL/min/kg.

On to `CCCCC(NC(=O)[C@H](CCC(=O)O)NC(=O)[C@H](CC(=O)O)NC(=O)[C@H](CO)NC(=O)[C@H](Cc1ccccc1)NC(=O)[C@H](CO)NC(=O)CNC(=O)[C@H](CC(=O)O)NC(=O)CNC(=O)[C@@H](N)Cc1cnc[nH]1)C(=O)N[C@@H](CC1CCCCC1)C(=O)N[C@H](C(=O)N[C@H](C(=O)N[C@@H](CC(C)C)C(=O)N[C@@H](CC(=O)O)C(=O)N[C@@H](CC(N)=O)C(=O)N[C@@H](CC(C)C)C(=O)N[C@@H](C)C(=O)N[C@@H](C)C(=O)N[C@@H](CCCNC(=N)N)C(=O)N[C@@H](CC(=O)O)C(=O)N[C@@H](Cc1ccccc1)C(=O)N[C@H](C(=O)N[C@@H](CC(N)=O)C(=O)N[C@@H](Cc1c[nH]c2ccccc12)C(=O)N[C@@H](CC(C)C)C(=O)N[C@H](C(=O)N[C@@H](CCC(N)=O)C(=O)N[C@H](C(=O)N[C@@H](CCCCN)C(N)=O)[C@@H](C)O)[C@@H](C)CC)[C@@H](C)CC)[C@@H](C)CC)[C@@H](C)O` (some centres not stated) (H-HGDGSFSDE[ξNle][Cha]TILDNLAARDFINWLIQTK-NH2), for which the Efficacy in data set [1] was 83%. Further, the Ratio EC50 in the data set with HEK293 amounted to 17. Also, the result in data set [2] was inactive. Besides, the pEC50 is 8.05 in data set [3] and 9.29 in data set [5]. In data set [4], this molecule came in with a clearance of 0.69 mL/min/kg.

For the molecule `CCCCC(NC(=O)[C@H](CCC(=O)O)NC(=O)[C@H](CC(=O)O)NC(=O)[C@H](CO)NC(=O)[C@H](Cc1ccccc1)NC(=O)[C@H](CO)NC(=O)CNC(=O)[C@H](CC(=O)O)NC(=O)CNC(=O)[C@@H](N)Cc1cnc[nH]1)C(=O)N[C@H](Cc1ccccc1Cl)C(=O)N[C@H](C(=O)N[C@H](C(=O)N[C@@H](CC(C)C)C(=O)N[C@@H](CC(=O)O)C(=O)N[C@@H](CC(N)=O)C(=O)N[C@@H](CC(C)C)C(=O)N[C@@H](C)C(=O)N[C@@H](C)C(=O)N[C@@H](CCCNC(=N)N)C(=O)N[C@@H](CC(=O)O)C(=O)N[C@@H](Cc1ccccc1)C(=O)N[C@H](C(=O)N[C@@H](CC(N)=O)C(=O)N[C@@H](Cc1c[nH]c2ccccc12)C(=O)N[C@@H](CC(C)C)C(=O)N[C@H](C(=O)N[C@@H](CCC(N)=O)C(=O)N[C@H](C(=O)N[C@@H](CCCCN)C(N)=O)[C@@H](C)O)[C@@H](C)CC)[C@@H](C)CC)[C@@H](C)CC)[C@@H](C)O` (some centres not stated), the Efficacy in data set [1] stood at 36%. For the same molecule, the Ratio EC50 with HEK293 was found to be 900. In data set [2], the outcome was inactive. Moreover, the pEC50 in data set [3] is 7.00; in data set [5], 9.96. This molecule also yielded a clearance in data set [4] of 0.73 mL/min/kg.

As for `CCCCC(NC(=O)[C@H](CCC(=O)O)NC(=O)[C@H](CC(=O)O)NC(=O)[C@H](CO)NC(=O)[C@H](Cc1ccccc1)NC(=O)[C@H](CO)NC(=O)CNC(=O)[C@H](CC(=O)O)NC(=O)CNC(=O)[C@@H](N)Cc1cnc[nH]1)C(=O)N[C@H](Cc1cccs1)C(=O)N[C@H](C(=O)N[C@H](C(=O)N[C@@H](CC(C)C)C(=O)N[C@@H](CC(=O)O)C(=O)N[C@@H](CC(N)=O)C(=O)N[C@@H](CC(C)C)C(=O)N[C@@H](C)C(=O)N[C@@H](C)C(=O)N[C@@H](CCCNC(=N)N)C(=O)N[C@@H](CC(=O)O)C(=O)N[C@@H](Cc1ccccc1)C(=O)N[C@H](C(=O)N[C@@H](CC(N)=O)C(=O)N[C@@H](Cc1c[nH]c2ccccc12)C(=O)N[C@@H](CC(C)C)C(=O)N[C@H](C(=O)N[C@@H](CCC(N)=O)C(=O)N[C@H](C(=O)N[C@@H](CCCCN)C(N)=O)[C@@H](C)O)[C@@H](C)CC)[C@@H](C)CC)[C@@H](C)CC)[C@@H](C)O` (some centres not stated), in data set [1], the Efficacy was 49%. The Ratio EC50 in the data set with HEK293 is 800. For the same molecule, the result in data set [2] was inactive. The pEC50 in data set [3] is 7.10; in data set [5], 10.00. This molecule also yielded a clearance in data set [4] of 1.1 mL/min/kg.

The record behind these values is ChEMBL document CHEMBL3822442, “Synthesis and Pharmacological Characterization of Novel Glucagon-like Peptide-2 (GLP-2) Analogues with Low Systemic Clearance” (J Med Chem, 2016).
